Laboratory results reported in patent US10154957B2, “Microneedle device having a peptide therapeutic agent and an amino acid and methods of making and using the same” (3M INNOVATIVE PROPERTIES COMPANY, priority 2011, dated 2018).

Test: Percent purity of PTHrP analogue (20 mg/mL formulations) in coating on flood-coated arrays stored at 40° C./96% RH (HPLC)
Assay type: physicochemical
Details: peptide 20 mg/mL in PBS
Method: The protein or polypeptide content in the formulation coated on the microneedle arrays was determined using an Agilent 1100 HPLC system (Agilent Technologies, Wilmington, Del.) equipped with a binary pump, well-plated thermostated autosampler, thermostated column compartment, and a diode array UV detector. A Zorbax 300SB-C8 column (Agilent Technologies, Wilmington, Del.) having a 5 μm particle size and 2.1×150 mm inner diameter was used for the separations. The column was maintained at 50° C. The mobile phase consisted of two eluents. Eluent A was 0.1% TFA (trifluoroacetic acid) in water and eluent B was 0.1% TFA in acetonitrile (Spectrum Chemical, New Brunswick, N.J.). A linear gradient from 80/20 to 50/50 (A/B) was applied over 30 minutes. The flow rate was 0.4 mL/minute and the UV detection wavelength was set at 214 nm. The total run time was 34 minutes and the sample injection volume was 15 μL.
A sample formulation containing 20 mg/mL of [Glu^22,25,Leu^23,28,31,Aib^29,Lys^26,30]hPTHrP(1-34)NH2 and 20 mg/mL of L-histidine monohydrochloride (His-HCl) in PBS was prepared. A control formulation was also prepared containing 20 mg/mL of [Glu^22,25,Leu^23,28,31,Aib^29,Lys^26,30]hPTHrP(1-34)NH2 in PBS. […] Microneedle arrays were coated with either the sample or the control formulation. The coating was applied by dropwise addition of 50 μL of the formulation to the portion of the array defined by the octagon shaped pattern of microneedles. The flood coated arrays (both sample and control formulation coated) were dried in an oven at 35° C. for 2 hours followed by 30° C. for 15 hours.
After drying, the coated arrays were placed in a storage chamber that was maintained at 40° C. and 96% relative humidity (RH). The [Glu^22,25,Leu^23,28,31,Aib^29,Lys^26,30]hPTHrP(1-34)NH2 content of the coated arrays was determined following storage in the chamber for 1, 3, and 7 days. The initial [Glu^22,25,Leu^23,28,31,Aib^29,Lys^26,30]hPTHrP(1-34)NH2 content was also determined using freshly coated arrays (both sample and control formulation coated). The arrays used to determine initial content were stored in a refrigerator at about 4° C. and analyzed within one day of being prepared. At the designated time point, an array was taken from the chamber and washed with 0.1 N acetic acid (20 mL) to remove the formulation from the array. The resulting wash solution was analyzed for [Glu^22,25,Leu^23,28,31,Aib^29,Lys^26,30]hPTHrP(1-34)NH2 content using the HPLC method described above. The results were quantified against an external standard of [Glu^22,25,Leu^23,28,31,Aib^29,Lys^26,30]hPTHrP(1-34)NH2. At each time point, the percent purity of [Glu^22,25,Leu^23,28,31,Aib^29,Lys^26,30]hPTHrP(1-34)NH2 in the coating was determined by measuring the peak area for [Glu^22,25,Leu^23,28,31,Aib^29,Lys^26,30]hPTHrP(1-34)NH2 in the selected coating and dividing it by the total peak area measured for all [Glu^22,25,Leu^23,28,31,Aib^29,Lys^26,30]hPTHrP(1-34)NH2 related peaks.
The same procedure as described in Example 9 was used with the exception that the sample formulation contained 20 mg/mL of L-arginine hydrochloride, instead of L-histidine monohydrochloride.

Percent Purity of [Glu^22,25, Leu^23,28,31, Aib^29, Lys^26,30]hPTHrP(1-34)NH2 (Amino Acid L-Arginine (Arg-HCl 20 mg/mL), Day 1 at 40° C./96% RH): 88.4%
Percent Purity of [Glu^22,25, Leu^23,28,31, Aib^29, Lys^26,30]hPTHrP(1-34)NH2 (Amino Acid L-Arginine (Arg-HCl 20 mg/mL), Day 3 at 40° C./96% RH): 76.1%
Percent Purity of [Glu^22,25, Leu^23,28,31, Aib^29, Lys^26,30]hPTHrP(1-34)NH2 (Amino Acid L-Arginine (Arg-HCl 20 mg/mL), Day 7 at 40° C./96% RH): 46.4%
Percent Purity of [Glu^22,25, Leu^23,28,31, Aib^29, Lys^26,30]hPTHrP(1-34)NH2 (Amino Acid L-Arginine (Arg-HCl 20 mg/mL), Initial): 99.0%
Percent Purity of [Glu^22,25, Leu^23,28,31, Aib^29, Lys^26,30]hPTHrP(1-34)NH2 (Amino Acid L-Histidine (His-HCl 20 mg/mL), Day 1 at 40° C./96% RH): 99.3%
Percent Purity of [Glu^22,25, Leu^23,28,31, Aib^29, Lys^26,30]hPTHrP(1-34)NH2 (Amino Acid L-Histidine (His-HCl 20 mg/mL), Day 3 at 40° C./96% RH): 98.9%
Percent Purity of [Glu^22,25, Leu^23,28,31, Aib^29, Lys^26,30]hPTHrP(1-34)NH2 (Amino Acid L-Histidine (His-HCl 20 mg/mL), Day 7 at 40° C./96% RH): 97.9%
Percent Purity of [Glu^22,25, Leu^23,28,31, Aib^29, Lys^26,30]hPTHrP(1-34)NH2 (Amino Acid L-Histidine (His-HCl 20 mg/mL), Initial): 99.4%
Percent Purity of [Glu^22,25, Leu^23,28,31, Aib^29, Lys^26,30]hPTHrP(1-34)NH2 (Amino Acid None (control), Day 1 at 40° C./96% RH): 85.6%
Percent Purity of [Glu^22,25, Leu^23,28,31, Aib^29, Lys^26,30]hPTHrP(1-34)NH2 (Amino Acid None (control), Day 3 at 40° C./96% RH): 53.1%
Percent Purity of [Glu^22,25, Leu^23,28,31, Aib^29, Lys^26,30]hPTHrP(1-34)NH2 (Amino Acid None (control), Day 7 at 40° C./96% RH): 21.1%
Percent Purity of [Glu^22,25, Leu^23,28,31, Aib^29, Lys^26,30]hPTHrP(1-34)NH2 (Amino Acid None (control), Initial): 98.9%
Substance: [Glu^22,25,Leu^23,28,31,Aib^29,Lys^26,30]hPTHrP(1-34)NH2
